Patent publication US11076594B2, “Pyrazolone compound or salt thereof, preparation method therefor, herbicide composition and use thereof” (QINGDAO KINGAGROOT CHEMICAL COMPOUNDS CO., LTD., priority 2015, dated 2021)

Tests used:
Type in all cases: in vivo
Conditions in all cases: post-emergence spray at 4-5 leaf stage, 250 g/ha active ingredient with 450 kg/ha water, rated after 3 weeks in greenhouse
[1] = test system: Indian mallow; assay: weed control effect in post-emergence stage (Table 1); parameters: key: Level 10: completely dead; Level 9: above 95% growth control rate; Level 8: above 90% growth control rate; Level 7: above 80% growth control rate; Level 6: above 70% growth control rate; Level 5: above 60% growth control rate; Level 4: above 50% growth control rate; Level 3: above 20% growth control rate; Level 2: 5%-20% growth control rate; Level 1: below 5% growth control rate
Description: (§1) The activity level standard of harmful plant destruction (i.e. growth control rate) is as follows: The above described growth control rate is fresh weight control rate. Monocotyledonous and dicotyledonous weed seeds and main crop seeds (i.e. wheat, corn, rice, soybean, cotton, oilseed, millet and sorghum.) were put into a plastic pot loaded with soil. Then covered with 0.5-2 cm soil, the seeds were allowed to grow in good greenhouse environment. The test plants were treated at 4-5 leaf stage 2-3 weeks after sowing. The test compounds of the invention were dissolved with acetone respectively, then added with 80 tween and diluted by certain amount of water to certain concentration. The solution was sprayed to the plants with a sprayer. Then the plants were cultured for 3 weeks in the greenhouse.

[2] = test system: bidens bipinnata; assay: as above; parameters: key: Level 10: completely dead; Level 9: above 95% growth control rate; Level 8: above 90% growth control rate; Level 7: above 80% growth control rate; Level 6: above 70% growth control rate; Level 5: above 60% growth control rate; Level 4: above 50% growth control rate; Level 3: above 20% growth control rate; Level 2: 5%-20% growth control rate; Level 1: below 5% growth control rate
Description: as §1

[3] = test system: crab grass; assay: as above; parameters: key: Level 10: completely dead; Level 9: above 95% growth control rate; Level 8: above 90% growth control rate; Level 7: above 80% growth control rate; Level 6: above 70% growth control rate; Level 5: above 60% growth control rate; Level 4: above 50% growth control rate; Level 3: above 20% growth control rate; Level 2: 5%-20% growth control rate; Level 1: below 5% growth control rate
Description: as §1

[4] = test system: echinochloa; assay: as above; parameters: key: Level 10: completely dead; Level 9: above 95% growth control rate; Level 8: above 90% growth control rate; Level 7: above 80% growth control rate; Level 6: above 70% growth control rate; Level 5: above 60% growth control rate; Level 4: above 50% growth control rate; Level 3: above 20% growth control rate; Level 2: 5%-20% growth control rate; Level 1: below 5% growth control rate
Description: as §1

[5] = test system: foxtail; assay: as above; parameters: key: Level 10: completely dead; Level 9: above 95% growth control rate; Level 8: above 90% growth control rate; Level 7: above 80% growth control rate; Level 6: above 70% growth control rate; Level 5: above 60% growth control rate; Level 4: above 50% growth control rate; Level 3: above 20% growth control rate; Level 2: 5%-20% growth control rate; Level 1: below 5% growth control rate
Description: as §1

[6] = test system: rorippa indica; assay: as above; parameters: key: Level 10: completely dead; Level 9: above 95% growth control rate; Level 8: above 90% growth control rate; Level 7: above 80% growth control rate; Level 6: above 70% growth control rate; Level 5: above 60% growth control rate; Level 4: above 50% growth control rate; Level 3: above 20% growth control rate; Level 2: 5%-20% growth control rate; Level 1: below 5% growth control rate
Description: as §1

[7] = test system: wheat; assay: post-emergence stage experiment, crop (Table 1)
Description: as §1

[8] = test system: rice; assay: post-emergence stage experiment, crop (Table 1)
Description: as §1

Compound	effect on crop, Wheat (level) [7]	weed control effect, Indian mallow (level) [1]	weed control effect, Bidens bipinnata (level) [2]	weed control effect, Crab grass (level) [3]	weed control effect, Echinochloa (level) [4]	weed control effect, Green foxtail (level) [5]	weed control effect, Rorippa indica (level) [6]	effect on crop, Rice (level) [8]
CC(=O)Nc1c(C(F)(F)F)ccc(C(=O)c2c(C)nn(C)c2O)c1Cl [Compound 002]	5 (Level 5: above 60% growth control rate)	10	8 (Level 8: above 90% growth control rate)	4 (Level 4: above 50% growth control rate)	8 (Level 8: above 90% growth control rate)	7 (Level 7: above 80% growth control rate)	9 (Level 9: above 95% growth control rate)	7 (Level 7: above 80% growth control rate)
CC(=O)N(C)c1c(C(F)(F)F)ccc(C(=O)c2c(C)nn(C)c2O)c1Cl [Compound 004]	0	9 (Level 9: above 95% growth control rate)	9 (Level 9: above 95% growth control rate)	4 (Level 4: above 50% growth control rate)	4 (Level 4: above 50% growth control rate)	1 (Level 1: below 5% growth control rate)	9 (Level 9: above 95% growth control rate)	5 (Level 5: above 60% growth control rate)
COCCCN(C(C)=O)c1c(C(F)(F)F)ccc(C(=O)c2c(C)nn(C)c2O)c1Cl [Compound 008]	0	3 (Level 3: above 20% growth control rate)	10	3 (Level 3: above 20% growth control rate)	10	10	0	0
CCOCCCN(C(C)=O)c1c(C(F)(F)F)ccc(C(=O)c2c(C)nn(C)c2O)c1Cl [Compound 009]	0	2 (Level 2: 5%-20% growth control rate)	5 (Level 5: above 60% growth control rate)	1 (Level 1: below 5% growth control rate)	10	9 (Level 9: above 95% growth control rate)	0	5 (Level 5: above 60% growth control rate)
CC(=O)N(CCCOC(C)C)c1c(C(F)(F)F)ccc(C(=O)c2c(C)nn(C)c2O)c1Cl [Compound 010]	0	0	5 (Level 5: above 60% growth control rate)	1 (Level 1: below 5% growth control rate)	6 (Level 6: above 70% growth control rate)	5 (Level 5: above 60% growth control rate)	0	0
COCCOCCCN(C(C)=O)c1c(C(F)(F)F)ccc(C(=O)c2c(C)nn(C)c2O)c1Cl [Compound 012]	0	10	10	1 (Level 1: below 5% growth control rate)	9 (Level 9: above 95% growth control rate)	2 (Level 2: 5%-20% growth control rate)	0	0
Cc1nn(C)c(O)c1C(=O)c1ccc(C(F)(F)F)c(N2CCCC2=O)c1Cl [Compound 018]	3 (Level 3: above 20% growth control rate)	9 (Level 9: above 95% growth control rate)	10	10	8 (Level 8: above 90% growth control rate)	10	10	–

Second part, led by results:

effect on crop, Wheat (level) [7]	Compound	weed control effect, Indian mallow (level) [1]	weed control effect, Bidens bipinnata (level) [2]	weed control effect, Crab grass (level) [3]	weed control effect, Echinochloa (level) [4]	weed control effect, Green foxtail (level) [5]	weed control effect, Rorippa indica (level) [6]	effect on crop, Rice (level) [8]
0	CCCCN(C(C)=O)c1c(C(F)(F)F)ccc(C(=O)c2c(C)nn(C)c2O)c1Cl [Compound 006]	0	5 (Level 5: above 60% growth control rate)	2 (Level 2: 5%-20% growth control rate)	10	3 (Level 3: above 20% growth control rate)	5 (Level 5: above 60% growth control rate)	1 (Level 1: below 5% growth control rate)
0	CCCCOCCCN(C(C)=O)c1c(C(F)(F)F)ccc(C(=O)c2c(C)nn(C)c2O)c1Cl [Compound 011]	0	5 (Level 5: above 60% growth control rate)	1 (Level 1: below 5% growth control rate)	1 (Level 1: below 5% growth control rate)	1 (Level 1: below 5% growth control rate)	0	0
0	Cc1nn(C)c(O)c1C(=O)c1ccc(C(F)(F)F)c(-n2ccnc2)c1Cl [Compound 063]	10	10	0	1 (Level 1: below 5% growth control rate)	1 (Level 1: below 5% growth control rate)	9 (Level 9: above 95% growth control rate)	–
0	Cc1nn(C)c(O)c1C(=O)c1ccc(C(F)(F)F)c(-n2cc(Cl)cn2)c1Cl [Compound 095]	0	–	1 (Level 1: below 5% growth control rate)	1 (Level 1: below 5% growth control rate)	1 (Level 1: below 5% growth control rate)	0	6 (Level 6: above 70% growth control rate)
